Laboratory results reported in doi:10.1101/2024.08.19.608619, “Discovery of potent SARS-CoV-2 nsp3 macrodomain inhibitors uncovers lack of translation to cellular antiviral response” (bioRxiv, 2024).
Where “and” joins values, the source holds several entries; their conditions need not be identical. Identical values can stand only once.

How the values were obtained:
[1] = test system: SARS-CoV-2, isolate USA-WA1/2020; assay: microbe, parasite or virus in culture; assay type: cell-based; conditions: HeLa-ACE2 SARS-CoV-2 antiviral effect without P-gp inhibitor; for EC50: read-out: ec50; for EC90: read-out: ec90
human CHRM2 (M2) = target: T1, human CHRM2 (M2) (Homo sapiens, UniProt P08172); assay: Eurofins CEREP panel, M2; assay type: binding; conditions: M2 (h) (antagonist radioligand); test compound concentration 10 uM
T1 construct: purchased Eurofins Cerep (SafetyScreen44), recognised from the panel format
T1 sequence (P08172 1-466): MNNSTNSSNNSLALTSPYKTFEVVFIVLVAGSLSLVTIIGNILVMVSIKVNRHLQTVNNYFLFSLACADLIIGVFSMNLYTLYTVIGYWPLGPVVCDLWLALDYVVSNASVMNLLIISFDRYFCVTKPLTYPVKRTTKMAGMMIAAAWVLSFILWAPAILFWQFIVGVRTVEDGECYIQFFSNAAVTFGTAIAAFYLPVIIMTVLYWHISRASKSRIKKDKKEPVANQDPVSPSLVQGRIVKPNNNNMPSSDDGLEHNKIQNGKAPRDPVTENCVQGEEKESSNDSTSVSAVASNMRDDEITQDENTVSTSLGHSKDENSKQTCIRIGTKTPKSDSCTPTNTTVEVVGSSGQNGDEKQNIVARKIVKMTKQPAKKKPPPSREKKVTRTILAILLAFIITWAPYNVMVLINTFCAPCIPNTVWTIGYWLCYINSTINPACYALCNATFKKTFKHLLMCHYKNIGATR

[2] = In vitro rat hepatocyte stability; assay type: in vitro ADME
Text: Supplement media-1.zip/Hepatocyte_Stability.csv, table | column: clint; t_half

M1 (h) = target: T2, M1 (h) (Homo sapiens, UniProt P11229); assay: In vitro CEREP profiling, M1 (h) (antagonist radioligand); assay type: binding; conditions: test compound concentration 10 uM
T2 construct: purchased Eurofins Cerep (SafetyScreen44), recognised from the panel format
T2 sequence (P11229 1-460): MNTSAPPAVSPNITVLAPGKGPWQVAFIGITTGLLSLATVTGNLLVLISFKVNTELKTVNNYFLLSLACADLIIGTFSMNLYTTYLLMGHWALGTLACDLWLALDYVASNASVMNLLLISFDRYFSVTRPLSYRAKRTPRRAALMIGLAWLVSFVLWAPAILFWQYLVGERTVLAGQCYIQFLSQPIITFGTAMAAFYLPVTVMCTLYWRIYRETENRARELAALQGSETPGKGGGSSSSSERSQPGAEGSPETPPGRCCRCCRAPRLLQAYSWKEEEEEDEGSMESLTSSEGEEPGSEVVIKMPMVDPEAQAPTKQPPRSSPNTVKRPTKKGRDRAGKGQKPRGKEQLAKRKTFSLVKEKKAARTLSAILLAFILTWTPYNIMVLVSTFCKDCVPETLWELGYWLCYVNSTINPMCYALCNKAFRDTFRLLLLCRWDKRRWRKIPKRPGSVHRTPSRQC
Text: (§1) Supplement media-1.zip/Safety_Panel_Profile.csv, table | column: perc_inhibition

V1a (h) = target: T3, V1a (h) (Homo sapiens, UniProt P37288); assay: In vitro CEREP profiling, V1a (h) (agonist radioligand); assay type: binding; conditions: test compound concentration 10 uM
T3 construct: purchased Eurofins Cerep (SafetyScreen44), recognised from the panel format
T3 sequence (P37288 whole entry): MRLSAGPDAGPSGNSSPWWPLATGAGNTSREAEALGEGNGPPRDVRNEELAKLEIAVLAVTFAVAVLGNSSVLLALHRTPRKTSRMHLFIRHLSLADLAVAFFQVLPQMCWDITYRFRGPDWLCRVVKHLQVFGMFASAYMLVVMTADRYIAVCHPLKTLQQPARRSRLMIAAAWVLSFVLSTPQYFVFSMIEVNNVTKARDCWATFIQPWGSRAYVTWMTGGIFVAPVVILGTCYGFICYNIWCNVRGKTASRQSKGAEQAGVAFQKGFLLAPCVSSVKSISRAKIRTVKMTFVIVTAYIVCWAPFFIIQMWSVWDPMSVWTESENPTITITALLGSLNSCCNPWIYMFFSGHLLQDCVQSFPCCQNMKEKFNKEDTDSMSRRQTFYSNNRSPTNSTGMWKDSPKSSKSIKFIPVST
Text: as §1

CCK1 (CCKA) (h) = target: T4, CCK1 (CCKA) (h) (Homo sapiens, UniProt P32238); assay: In vitro CEREP profiling, CCK1 (CCKA) (h) (agonist radioligand); assay type: binding; conditions: test compound 10 uM
T4 construct: purchased Eurofins Cerep (SafetyScreen44), recognised from the panel format
T4 sequence (P32238 1-428): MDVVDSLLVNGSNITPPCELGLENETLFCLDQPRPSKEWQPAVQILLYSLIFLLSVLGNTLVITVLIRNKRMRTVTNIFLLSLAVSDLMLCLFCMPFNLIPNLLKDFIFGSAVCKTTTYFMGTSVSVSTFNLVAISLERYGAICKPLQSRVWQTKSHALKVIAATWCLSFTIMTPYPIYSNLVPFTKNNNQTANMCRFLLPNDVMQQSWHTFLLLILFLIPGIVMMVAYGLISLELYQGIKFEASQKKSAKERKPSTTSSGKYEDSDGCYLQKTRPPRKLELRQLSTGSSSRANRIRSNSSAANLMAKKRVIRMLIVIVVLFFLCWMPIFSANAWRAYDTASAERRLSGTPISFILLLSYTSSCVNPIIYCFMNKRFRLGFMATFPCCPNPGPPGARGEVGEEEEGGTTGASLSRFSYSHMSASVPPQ
Text: as §1

mu (MOP) (h) = target: T5, mu (MOP) (h) (Homo sapiens, UniProt P35372); assay: In vitro CEREP profiling, mu (MOP) (h) (agonist radioligand); assay type: binding; conditions: test compound concentration 10 uM
T5 construct: purchased Eurofins Cerep (SafetyScreen44), recognised from the panel format
T5 sequence (P35372 whole entry): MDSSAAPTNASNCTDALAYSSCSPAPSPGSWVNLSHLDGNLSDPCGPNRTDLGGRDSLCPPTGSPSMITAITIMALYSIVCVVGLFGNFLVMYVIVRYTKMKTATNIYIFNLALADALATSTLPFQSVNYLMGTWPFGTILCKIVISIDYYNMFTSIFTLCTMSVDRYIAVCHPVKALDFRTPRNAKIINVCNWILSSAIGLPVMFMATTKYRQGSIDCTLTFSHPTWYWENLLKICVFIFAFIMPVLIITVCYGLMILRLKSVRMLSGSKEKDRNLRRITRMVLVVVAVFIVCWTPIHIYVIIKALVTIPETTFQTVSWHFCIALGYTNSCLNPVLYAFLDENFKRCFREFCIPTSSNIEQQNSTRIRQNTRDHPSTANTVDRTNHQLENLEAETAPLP
Text: as §1

[3] = In vitro rat SD liver microsomal stability; assay type: in vitro ADME
Text: Supplement media-1.zip/Hepatic_Microsomal_Stability.csv, table | column: clint; t_half

5-HT1A (h) = target: T6, 5-HT1A (h) (Homo sapiens, UniProt P08908); assay: In vitro CEREP profiling, 5-HT1A (h) (agonist radioligand); assay type: binding; conditions: test compound concentration 10 uM
T6 construct: purchased Eurofins Cerep (SafetyScreen44), recognised from the panel format
T6 sequence (P08908 1-422): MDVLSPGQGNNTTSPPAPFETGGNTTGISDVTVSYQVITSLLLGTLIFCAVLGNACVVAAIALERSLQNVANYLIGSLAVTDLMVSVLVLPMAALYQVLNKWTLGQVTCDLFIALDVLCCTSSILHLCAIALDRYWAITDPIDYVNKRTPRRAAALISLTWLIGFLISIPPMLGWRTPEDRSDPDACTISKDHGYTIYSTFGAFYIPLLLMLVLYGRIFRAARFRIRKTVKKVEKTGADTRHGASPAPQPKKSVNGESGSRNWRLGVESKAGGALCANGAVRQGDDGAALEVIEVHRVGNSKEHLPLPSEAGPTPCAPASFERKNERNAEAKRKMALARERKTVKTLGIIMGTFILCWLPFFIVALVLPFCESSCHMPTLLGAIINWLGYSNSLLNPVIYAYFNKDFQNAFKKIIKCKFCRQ
Text: as §1

KV channel = assay: In vitro CEREP profiling, KV channel (antagonist radioligand); assay type: binding; conditions: test compound concentration 10 uM
Text: as §1

dopamine transporter (h) = target: T7, dopamine transporter (h) (Homo sapiens, UniProt Q01959); assay: In vitro CEREP profiling, dopamine transporter (h) (antagonist radioligand); assay type: binding; conditions: test compound concentration 10 uM
T7 construct: purchased Eurofins Cerep (SafetyScreen44), recognised from the panel format
T7 sequence (Q01959 whole entry): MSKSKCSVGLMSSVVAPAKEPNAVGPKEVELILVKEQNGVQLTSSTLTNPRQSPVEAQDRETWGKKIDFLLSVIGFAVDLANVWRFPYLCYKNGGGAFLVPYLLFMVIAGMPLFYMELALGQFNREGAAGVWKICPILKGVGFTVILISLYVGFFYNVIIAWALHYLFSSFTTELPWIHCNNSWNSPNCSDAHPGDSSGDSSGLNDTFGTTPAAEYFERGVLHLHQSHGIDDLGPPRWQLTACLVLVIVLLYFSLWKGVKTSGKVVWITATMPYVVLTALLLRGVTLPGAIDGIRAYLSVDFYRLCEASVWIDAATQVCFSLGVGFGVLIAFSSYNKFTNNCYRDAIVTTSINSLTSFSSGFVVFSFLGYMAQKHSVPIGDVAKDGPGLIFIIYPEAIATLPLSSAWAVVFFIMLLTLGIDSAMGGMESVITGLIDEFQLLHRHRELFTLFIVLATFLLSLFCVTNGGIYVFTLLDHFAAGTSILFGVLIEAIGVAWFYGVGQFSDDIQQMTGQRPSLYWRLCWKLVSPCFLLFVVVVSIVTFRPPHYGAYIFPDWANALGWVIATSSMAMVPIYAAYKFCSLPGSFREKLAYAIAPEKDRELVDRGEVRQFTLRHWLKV
Text: as §1

MERS-CoV = assay: microbe, parasite or virus in culture; assay type: cell-based; conditions: Vero E6/TMPRSS2 MERS-CoV antiviral effect with P-gp inhibitor; for perc_max_measured: maximum measured response of dose series; for EC90: read-out: ec90; for perc_min_measured: minimum measured response of dose series; for EC50: read-out: ec50
in vitro = conditions: human, hela-ace2 cells, 50.0
[4] = maximum measured response of dose series
[5] = minimum measured response of dose series

Row | SMILES | perc_max_measured ([1]; maximum measured response) [%] | perc_max_measured [1, 4] [%] | perc_min_measured ([1]; minimum measured response) [%] | perc_min_measured [1, 5] [%] | EC50 [1] | EC90 [1] | perc_inhibition (% inhibition of the binding of a ligand specific for each target) (human CHRM2 (M2)) [%] | clint [2] [uL/min/1E6 cells] | t_half [2] [min] | perc_inhibition (% inhibition of the binding of a ligand specific for each target) (M1 (h)) [%] | perc_inhibition (% inhibition of the binding of a ligand specific for each target) (V1a (h)) [%] | perc_inhibition (% inhibition of the binding of a ligand specific for each target) (CCK1 (CCKA) (h)) [%] | perc_inhibition (% inhibition of the binding of a ligand specific for each target) (mu (MOP) (h)) [%] | clint [3] [µL/min/mg] | t_half [3] [min] | perc_inhibition (% inhibition of the binding of a ligand specific for each target) (5-HT1A (h)) [%] | perc_inhibition (% inhibition of the binding of a ligand specific for each target) (KV channel) [%] | perc_inhibition (% inhibition of the binding of a ligand specific for each target) (dopamine transporter (h)) [%] | perc_max_measured (MERS-CoV) | EC90 (MERS-CoV) [µM] | also measured
1 | CC(C)[C@H](Nc1ncnc2[nH]ccc12)c1ccc2c(c1)S(=O)(=O)CCC2 [ASAP-0008674] | 158.705 | 129.029 | 84.767 | 103.942 | > 20 µM | > 20 µM | 34 | 75.8 | 9.15 | 19 | 6 | -2 | 8 | 155.0 | 4.49 | 12 | -10 | 27 | 131.878% and 83.309% and 125.339% | > 5 | CC50 at 24 h (in vitro): > 20 µM
2 | CC(C)[C@H](Nc1ncnc2[nH]c(-c3cnn(C)c3C#N)cc12)c1ccc2c(n1)OCCO2 [ASAP-0010715] | 105.242 | 125.33 | 1.508 | 4.425 | 0.508 µM and 0.819 µM | 1.96 µM and 3.36 µM | 18 | 87.5 | 7.92 | 7 | 27 | 1 | 15 | 106.0 | 6.54 | 43 | 0 | 29 | 122.135% and 106.633% | > 5 | perc_min_measured (MERS-CoV): 93.468% and 72.24%; EC50 (MERS-CoV): > 5 µM; CC50 at 24 h (in vitro): > 20 µM
3 | CNCc1cc(-c2cc3c(N[C@@H](c4ccc5c(c4)S(=O)(=O)CCC5)C(C)C)ncnc3[nH]2)co1 [ASAP-0011176] | 134.366 | 113.346 | 28.123 | 56.361 | 11.6 µM and > 20 µM | > 20 µM | 52 | 15.6 | 44.5 | 47 | 13 | -24 | -5 | 21.4 | 32.4 | 6 | 1 | 50 | 108.298% and 134.469% | > 5 | perc_min_measured (MERS-CoV): 91.617% and 86.125%; EC50 (MERS-CoV): > 5 µM; CC50 at 24 h (in vitro): > 20 µM
